Assay results taken from PMC8669121 (Epigenetics Insights, 2021).

Molecular target: T1, HDAC8 (histone deacetylase 8) (Homo sapiens, UniProt Q9BY41)
T1 sequence (Q9BY41 1-377): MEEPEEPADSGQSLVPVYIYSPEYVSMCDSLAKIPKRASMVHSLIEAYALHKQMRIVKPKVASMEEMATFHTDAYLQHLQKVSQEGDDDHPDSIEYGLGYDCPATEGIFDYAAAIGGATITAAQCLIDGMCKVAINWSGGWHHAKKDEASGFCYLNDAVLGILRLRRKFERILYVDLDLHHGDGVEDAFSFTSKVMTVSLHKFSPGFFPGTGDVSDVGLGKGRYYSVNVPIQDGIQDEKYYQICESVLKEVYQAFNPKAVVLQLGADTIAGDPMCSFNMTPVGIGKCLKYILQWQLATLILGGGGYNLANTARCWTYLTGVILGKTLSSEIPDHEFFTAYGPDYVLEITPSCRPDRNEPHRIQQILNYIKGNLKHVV
Assay: Fluor de Lys fluorogenic deacetylase inhibition assay with AcRHKK
Type: biochemical

| Ki [mM] | Structure (SMILES) |
| --- | --- |
| 4.48 ± 0.221 | CCCCCCCCCC(=O)O [Decanoic acid] |
| 2.35 ± 0.341 | CCCCCC(=O)O [Hexanoic acid] |
